Source: the NIST ThermoML archive (doi:10.1021/acs.jced.7b00171)
± gives the expanded uncertainty stated by the source.

Test: Solid-liquid equilibrium temperature
Settings: Crystal 1, visual observation

Solid-liquid equilibrium temperature (1310 kPa): 280.31 ± 0.26 K
Solid-liquid equilibrium temperature (3430 kPa): 281.53 ± 0.34 K
Solid-liquid equilibrium temperature (5310 kPa): 282.52 ± 0.41 K
SMILES: C1CCCCC1 [cyclohexane]
